Data as given in US5278181A, “Soluble alkyl[5-[amino (phenyl)methyl]-1H-benzimidazol-2-yl] carbamate anthelmintics” (priority 1992, dated 1994).

How the values were obtained:
[1] = tested on: Brugia pahangi; assay: Antifilarial effect in beagle dogs infected with Brugia pahangi; format: in vivo; conditions: for Dogs cured/Treated / Percent reduction Macrofilariae / Percent reduction Microfilariae: PO
Excerpt: The infective larvae of B. pahangi were produced and collected as described by McCall [J. Georgia Entomol. Soc. 16:283-293, (1981)]. The dogs were given 100 L3 of B. pahangi by subcutaneous injection (SC) into the dorsum of each hind paw or 200 L3 in one hind paw (i.e., a total inoculum of 200 L3 per dog).
The dogs were randomly allocated to treatment groups containing 4 dogs. The dogs were divided by sex and ranked by declining baseline microfilarial counts (average count based on the 5 bleedings made before the day of treatment). Those dogs which were amicrofilaremic or had very few microfilariae were excluded from the trial. Of the remaining dogs, those with the highest baseline microfilaremias were assigned to seven-dog replicates. The sex of the dogs within three of the replicates was the same, while the fourth replicate contained dogs of both sexes. The dogs of a given sex with the highest levels of microfilaremia were placed in the same replicate. The next set of dogs of that sex with the next highest levels of microfilaremia was assigned to the next replicate, and so on until all of the replicates were filled. The dogs within each complete replicate were assigned to test groups using a table of random numbers [Ostle and Mensing, Statistics in Research, Third Edition, Iowa State University Press, Ames, Iowa, pp. 560-563, (1975)]. The test groups were likewise assigned to either control or treatment groups using the table of random numbers.
The first day of treatment, day 0, was approximately 144 days after infection. Drugs were administered orally as a 10% suspension in HEC-Tween 80 or in soft gelatin capsules. Drugs were administered intramuscularly or subcutaneously as a 10% suspension in peanut oil or in HEC-Tween 80. Groups of four dogs served in sham-treated controls in each experiment. All of the treatments were given by IM injection in the dorsal lumbar muscles.
All dogs were observed frequently during each day of treatment and daily throughout the remainder of the study for any signs of reactions. In addition, the hair was shaved at the injection sites to facilitate the observation of possible tissue irritation resulting from treatment.
Blood was collected from each dog on days 51, 43, 27, 19, and 5 before treatment to determine baseline microfilaremias and allocate the dogs to treatment groups. Blood was then collected from all dogs on the day before treatment on day -1, on days 7, 10, 14, 21, 28, 35, 42, 49, and 56 days after treatment. All bleedings were done at approximately the same time of day (11:00-12:00 E.S.T.). Two 20-μl blood films were prepared from each sample and stained with giemsa. Microfilarial counts were made from the 2 blood films.
The dogs were euthanized for necropsy either two or six months after the first day of treatment. Just prior to euthanasia, the dogs were given a subcutaneous injection (SC) of a two percent solution of Evans blue into the dorsum of both hind paws in order to help delineate the lymphatic vessels. This was followed at least 30 minutes later with a lethal dose of Fatal-Plus® (Vortech Pharmaceuticals, Dearborn, Mich.). A limited necropsy was performed on each dog with examination of the afferent and efferent lymphatics of both hindlimbs and the popliteal, inguinal, internal and external iliac, and lumbar lymph nodes. Any live or dead worms seen were removed. These vessels and lymph nodes were removed, teased, and soaked overnight in normal saline to allow any worms to migrate out of the tissues. The condition of the worms, their sex and number, and the location from which they were recovered were noted.
Effectiveness against the adult parasites was determined as follows: [formula] Effectiveness against microfilariae for a given day after treatment was determined as follows: [formula]
The adult B. pahangi counts and the microfilarial counts were compared using a one way analysis of variance (ANOVA). […]

[2] = physchem; conditions: water
[3] = 50(34 free base) mg/kg/day bid × 5, gelatin capsules, not significantly different from control
[4] = 100(78 free base) mg/kg/day bid × 5, gelatin capsules
[5] = 200(155 free base) mg/kg/day bid × 5, HEC-Tween 80
[6] = 200(155 free base) mg/kg/day bid × 5, gelatin capsules

COC(=O)Nc1nc2cc(C(N)c3ccc(F)cc3)ccc2[nH]1.Cl.Cl (racemic) [Example 2, Methyl (±)-[5-[Amino(4Fluorophenyl)Methyl]-1H-Benzimidazol-2-yl]Carbamate Dihy drochloride Salt]
Dogs cured/Treated ([1]; 50(34 free base) mg/kg/day bid × 5, gelatin capsules): 0/4
Percent reduction Macrofilariae [1, 3]: 71%
Percent reduction Microfilariae [1, 3]: 89%
Dogs cured/Treated [1, 4]: 0/4
Percent reduction Microfilariae [1, 4]: 86%
Percent reduction Macrofilariae ([1]; 100(78 free base) mg/kg/day bid × 5, gelatin capsules, not significantly different from control): 23%
Percent reduction Macrofilariae ([1]; 200(155 free base) mg/kg/day bid × 1, HEC-Tween 80): 97%
Dogs cured/Treated ([1]; 200(155 free base) mg/kg/day bid × 1, HEC-Tween 80, necropsied 6 months): 1/3
Percent reduction Microfilariae ([1]; 200(155 free base) mg/kg/day bid × 1, HEC-Tween 80, not significantly different from control): 77%
Percent reduction Macrofilariae ([1]; 200(155 free base) mg/kg/day bid × 3, HEC-Tween 80): 90%
Dogs cured/Treated ([1]; 200(155 free base) mg/kg/day bid × 3, HEC-Tween 80, necropsied 6 months): 0/3
Percent reduction Microfilariae ([1]; 200(155 free base) mg/kg/day bid × 3, HEC-Tween 80, not significantly different from control): 71%
Percent reduction Macrofilariae [1, 5]: 100%
Percent reduction Microfilariae [1, 5]: 100%
Dogs cured/Treated ([1]; 200(155 free base) mg/kg/day bid × 5, HEC-Tween 80, necropsied 6 months): 3/3
Percent reduction Macrofilariae [1, 6]: 99%
Percent reduction Microfilariae [1, 6]: 100%
Dogs cured/Treated ([1]; 200(155 free base) mg/kg/day bid × 5, gelatin capsules, necropsied 6 months): 5/6
Percent reduction Macrofilariae ([1]; 200(155 free base) mg/kg/day × 1, HEC-Tween 80): 79%
Dogs cured/Treated ([1]; 200(155 free base) mg/kg/day × 1, HEC-Tween 80, necropsied 6 months): 1/3
Percent reduction Microfilariae ([1]; 200(155 free base) mg/kg/day × 1, HEC-Tween 80, not significantly different from control): 74%
Percent reduction Macrofilariae ([1]; 200(155 free base) mg/kg/day × 3, HEC-Tween 80): 97%
Dogs cured/Treated ([1]; 200(155 free base) mg/kg/day × 3, HEC-Tween 80, necropsied 6 months): 1/3
Percent reduction Microfilariae ([1]; 200(155 free base) mg/kg/day × 3, HEC-Tween 80, not significantly different from control): 78%
cure of B. pahangi infections ([1]; oral, 200 mg/kg/day (155 base equivalent) for 1, 3 or 5 days): cured dogs of B. pahangi infections
solubility [2]: > 50 mg/mL
